Among the data in PubChem BioAssay (NCI) are TGI values, retold here.

Some test systems named below: 786-0 renal; A549 NSCLC; ACHN renal; BT-549 breast; DU-145 prostate; EKVX NSCLC; HOP-92 NSCLC; NCI-H23 lung; NCI-H460 lung; NCI/ADR-RES ovarian; OVCAR-8 ovarian; RPMI-8226 leukemia; SF-268 CNS; SNB-75 CNS; T-47D breast; U251 CNS.
Common to all, as to experiment: inhibition of tumour cell growth, NCI panel, 48 h

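Five concentrations, 48 hours, 96-well plates. TGI: concentration producing complete growth inhibition.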 Bounds are passed on as bounds.

For `O=c1c2ccccc2nc(-c2ccccc2)n1/N=C/c1ccccc1[N+](=O)[O-]`, the TGI with 786-0 renal, with A549 NSCLC, in the test with ACHN renal, in the test with BT-549 breast, with DU-145 prostate and in the test with EKVX NSCLC was greater than 100 µM in each case. The TGI with HOP-92 NSCLC is 98.4 µM; with NCI-H23 lung, 58.8 µM; with NCI-H460 lung, greater than 100 µM; in the test on NCI/ADR-RES ovarian, greater than 100 µM; in the test on OVCAR-8 ovarian, greater than 100 µM; in the test on RPMI-8226 leukemia it was greater than 100 µM. Further, the TGI with SF-268 CNS is greater than 68.7 µM; in the test on SNB-75 CNS, 34.2 µM; in the test on T-47D breast it was greater than 100 µM; with U251 CNS, greater than 94.8 µM.

As for `O=C1NC(=Nc2ccccc2Cl)N/C1=C\c1c(Cl)cccc1Cl`, the TGI in the test on 786-0 renal is greater than 100 µM; in the test with A549 NSCLC, greater than 100 µM; with ACHN renal it was greater than 100 µM; in the test on BT-549 breast, greater than 100 µM; in the test on DU-145 prostate it was greater than 100 µM; in the test on EKVX NSCLC, 79.3 µM. Moreover, the TGI in the test on HOP-92 NSCLC is 61.8 µM; in the test on NCI-H23 lung, greater than 100 µM; in the test on NCI-H460 lung, 68.2 µM; in the test with NCI/ADR-RES ovarian, 86 µM; in the test on OVCAR-8 ovarian, greater than 100 µM; in the test on RPMI-8226 leukemia it was 56.6 µM. Moreover, the TGI in the test with SF-268 CNS was greater than 100 µM; with SNB-75 CNS, 76.3 µM; in the test with T-47D breast it was 81.1 µM; with U251 CNS it was greater than 100 µM.

In the case of `CC(=O)OC[C@@]1(C)[C@@H]2[C@@H]3[C@@]4(CO[C@]3(C)C(=O)[C@@]3(OC(C)=O)C[C@H](C)[C@H](OC(C)=O)[C@@H]3[C@H]4OC(C)=O)[C@H](OC(=O)c3ccccc3)C[C@@H]21`, the TGI in the test on 786-0 renal, in the test on A549 NSCLC, in the test with ACHN renal, in the test on BT-549 breast, with DU-145 prostate and with EKVX NSCLC was greater than 100 µM in each case. In addition, the TGI in the test with HOP-92 NSCLC, in the test with NCI-H23 lung, with NCI-H460 lung, in the test with NCI/ADR-RES ovarian, in the test with OVCAR-8 ovarian and with RPMI-8226 leukemia was greater than 100 µM each time. Moreover, the TGI with SF-268 CNS, in the test with SNB-75 CNS, with T-47D breast and in the test on U251 CNS was greater than 100 µM throughout.

For `O=C(CNc1ccc([N+](=O)[O-])cc1)Nn1c(-c2ccccc2)nc2ccccc2c1=O`, the TGI turned out to be 6.26 µM in the test on 786-0 renal; 25.8 µM with A549 NSCLC; 14.6 µM with ACHN renal; 4.25 µM in the test on BT-549 breast; 23.3 µM in the test with DU-145 prostate; 28.6 µM in the test on EKVX NSCLC. The TGI was 6.66 µM in the test with HOP-92 NSCLC; 7.13 µM in the test on NCI-H23 lung; 14.3 µM with NCI-H460 lung; 7.65 µM in the test on NCI/ADR-RES ovarian; 18 µM in the test on OVCAR-8 ovarian; 14.8 µM in the test with RPMI-8226 leukemia. The TGI with SF-268 CNS was 16.4 µM; in the test on SNB-75 CNS, 11.3 µM; in the test on T-47D breast it was 9.63 µM; in the test with U251 CNS, 4.47 µM.

On to `CC(=O)n1nc(-c2[nH]c(C)c(-c3nn(C(C)=O)c(=S)o3)c2C)oc1=S`, for which the TGI with 786-0 renal, in the test with A549 NSCLC, in the test on ACHN renal, with BT-549 breast, with DU-145 prostate and with EKVX NSCLC was greater than 100 µM throughout. Also, the TGI in the test on HOP-92 NSCLC, in the test on NCI-H23 lung, in the test with NCI-H460 lung, in the test with NCI/ADR-RES ovarian, in the test on OVCAR-8 ovarian and in the test with RPMI-8226 leukemia was greater than 100 µM in each case. Further, the TGI with SF-268 CNS, with SNB-75 CNS, in the test with T-47D breast and in the test on U251 CNS was greater than 100 µM each time.

On to `CC(=O)Nn1c(Cc2ccc(Cl)cc2)nn(C)c1=O`, for which the TGI in the test with 786-0 renal, with A549 NSCLC, in the test on ACHN renal, in the test on BT-549 breast, with DU-145 prostate and with EKVX NSCLC was greater than 100 µM each time. The TGI in the test with HOP-92 NSCLC, with NCI-H23 lung, in the test with NCI-H460 lung, with NCI/ADR-RES ovarian, with OVCAR-8 ovarian and in the test with RPMI-8226 leukemia was greater than 100 µM throughout. Further, the TGI with SF-268 CNS, with SNB-75 CNS, with T-47D breast and with U251 CNS was greater than 100 µM in each case.

With `NC(=S)NN=Cc1ccccc1OCc1cccc(COc2ccccc2C=NNC(N)=S)n1`, the TGI was greater than 72 µM in the test with 786-0 renal; greater than 100 µM in the test on A549 NSCLC; greater than 100 µM in the test on ACHN renal; 31 µM in the test with BT-549 breast; greater than 45.6 µM in the test with DU-145 prostate; greater than 50.6 µM in the test on EKVX NSCLC. The TGI with HOP-92 NSCLC is 14.3 µM; in the test on NCI-H23 lung it was greater than 100 µM; with NCI-H460 lung, greater than 100 µM; with NCI/ADR-RES ovarian, greater than 100 µM; in the test with OVCAR-8 ovarian it was greater than 100 µM; in the test on RPMI-8226 leukemia it was greater than 100 µM. Moreover, the TGI was greater than 100 µM in the test on SF-268 CNS, 5.62 µM with SNB-75 CNS, greater than 100 µM in the test on T-47D breast and 19.3 µM in the test on U251 CNS.

As for `O=c1c2c3c(sc2nc2n1sc1nc4sc5c(c4c(=O)n12)CCCC5)CCCC3`, the TGI was 31 µM with 786-0 renal; greater than 100 µM in the test with A549 NSCLC; greater than 100 µM in the test on ACHN renal; 42.4 µM with BT-549 breast; greater than 74.3 µM in the test with DU-145 prostate; 27.8 µM in the test with EKVX NSCLC. For the same molecule, the TGI in the test with HOP-92 NSCLC was greater than 91.8 µM; in the test on NCI-H23 lung, 79.7 µM; with NCI-H460 lung it was greater than 100 µM; in the test with NCI/ADR-RES ovarian, greater than 71.4 µM; in the test with OVCAR-8 ovarian it was greater than 100 µM; in the test with RPMI-8226 leukemia, greater than 63.2 µM. The TGI in the test with SF-268 CNS is greater than 100 µM; in the test on SNB-75 CNS, greater than 32.8 µM; with T-47D breast, 17.1 µM; in the test on U251 CNS, greater than 100 µM.

Turning to `COC(=O)CSc1cc(Cl)c(C)cc1S(=O)(=O)Nc1n[nH]c(N)n1`, the TGI in the test with 786-0 renal, with A549 NSCLC, in the test on ACHN renal, in the test with BT-549 breast, in the test with DU-145 prostate and in the test with EKVX NSCLC was greater than 10 µM throughout. The TGI in the test with HOP-92 NSCLC, in the test on NCI-H23 lung, in the test with NCI-H460 lung, in the test on NCI/ADR-RES ovarian, in the test on OVCAR-8 ovarian and with RPMI-8226 leukemia was greater than 10 µM in each case. In addition, the TGI in the test with SF-268 CNS, in the test on SNB-75 CNS, in the test on T-47D breast and in the test on U251 CNS was greater than 10 µM in each case.
